# Test results: patent US7994140B2, “Classes of compounds that interact with GPCRs” (Alchemia Limited, priority 2002, dated 2011)
# Target: T1, MC4 (Homo sapiens, UniProt P32245)
# T1 construct: purchased Perkin Elmer BioSignal; host or cells: HEK 293
# Test: GPCR radioligand binding (RLB) assay, melanocortin MC4, [125I]NDP-αMSH
# Settings: 10 micromolar compound; recombinant human receptor membranes (HEK 293)
# Method in brief: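 Membranes from HEK 293 cells expressing the recombinant human receptor were equilibrated with [125I]SST-14 (SST5) or [125I]NDP-αMSH (MC4), then compound added for an optimized incubation. Bound ligand separated by filtration on PEI-coated glass fiber and counted by liquid scintillation.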
# T1 sequence (P32245 whole entry): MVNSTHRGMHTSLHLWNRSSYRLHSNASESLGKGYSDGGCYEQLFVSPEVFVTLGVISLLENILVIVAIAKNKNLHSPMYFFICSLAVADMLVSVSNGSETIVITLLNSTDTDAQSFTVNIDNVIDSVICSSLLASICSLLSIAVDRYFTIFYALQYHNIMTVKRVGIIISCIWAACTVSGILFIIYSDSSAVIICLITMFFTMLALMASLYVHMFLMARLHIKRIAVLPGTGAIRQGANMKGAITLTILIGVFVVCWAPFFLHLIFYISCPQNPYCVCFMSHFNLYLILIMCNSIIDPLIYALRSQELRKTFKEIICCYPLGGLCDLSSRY
row,Compound,MC4 inhibition at 10 micromolar
1,COC[C@H]1OC(OCc2ccc(-c3ccccc3)cc2)[C@H](NC(=O)CNC(=N)N)[C@@H](OCc2ccc(-c3ccccc3)cc2)[C@@H]1O (some centres unmarked) [Compound 1],+ (Indicates inhibition greater than . . . 50%)
2,COC[C@H]1OC(OCc2ccccc2)[C@H](NC(=O)CCNC(=N)N)[C@@H](OCc2ccc(-c3ccccc3)cc2)[C@@H]1O (some centres unmarked) [Compound 6],+ (Indicates inhibition greater than . . . 50%)
3,COC[C@H]1OC(OCc2ccc(Cl)cc2)[C@H](NC(=O)CCNC(=N)N)[C@@H](OCc2ccc(-c3ccccc3)cc2)[C@@H]1O (some centres unmarked) [Compound 13],+ (Indicates inhibition greater than . . . 50%)
4,COC[C@H]1OC(OCc2ccc(Cl)cc2)[C@H](NC(=O)CCNC(=N)N)[C@@H](OCc2ccc3ccccc3c2)[C@@H]1O (some centres unmarked) [Compound 14],+ (Indicates inhibition greater than . . . 50%)

# Target: T2, SST5 (Homo sapiens, UniProt P35346)
# T2 construct: purchased Perkin Elmer BioSignal; host or cells: HEK 293
# Test: GPCR radioligand binding (RLB) assay, somatostatin SST5, [125I]SST-14
# Settings: 10 micromolar compound; Example Library 8
# Experimental: Recombinant human receptors expressed in HEK 293 cells were used for all experiments. Receptor membrane preparations were purchased from Perkin Elmer BioSignal. The labelled ligand used in somatostatin GPCR RLB assays was [^125I]SST-14 and in melanocortin assays was [^125I]NDP-αMSH. All assays were done in a 96-well plate format using either glass fiber filter mats or filter plates. All reagents purchased were of the highest quality.
# Specific assay buffer, incubation and washing conditions were optimized for each receptor however they all followed the same general format. The procedures for both filter mat and filter plate formats are based on the receptor manufacturers recommendations or those described extensively in the literature. The procedures are briefly outlined below.
# In assays where filter mats are used we incubate receptor membranes, assay buffer and [^125I] labelled ligand in 96 well microplates. Add compounds to incubation mixture and continue incubation for optimized period. Presoak Filter mat GF/B in 0.5% PEI for ˜2 hr at 4° C. On completion of assay mixture incubation add additional 100 μL/well of assay buffer immediately prior to filtration. Filter the assay mixture onto the GF/B filter mat using a cell harvester. Dry the filter mats prior to sealing them into a scintillation counting bag with scintillant. Radioactivity in each well is detected by liquid scintillation counting.
# In assays where filter plates are used Multiscreen glass fiber filter plates (Millipore, Cat No MAFCNOB10) are precoated with 0.5% PEI for ˜2 hr at 4° C. All wells are then washed with 200 µl/well assay buffer and filtered using the Multiscreen Separation System. Subsequently receptor membranes, assay buffer and labelled ligands are added to the wells and equilibrated. Compounds for testing are then added to the mixture and incubation is continued for an optimized time. Plates are then put into the Multiscreen Separation System and the assay mixture is filtered through the plate under vacuum. Each well is then washed several times with assay buffer. Plates are then dried prior to putting sealing tape onto the bottom of the plate. Scintillant is added to each well and radioactivity measured by liquid scintillation counting.
# Raw data was analysed according to standard methods using either GraphPad Prism software or IDDBS ActivityBase software.
# T2 sequence (P35346 whole entry): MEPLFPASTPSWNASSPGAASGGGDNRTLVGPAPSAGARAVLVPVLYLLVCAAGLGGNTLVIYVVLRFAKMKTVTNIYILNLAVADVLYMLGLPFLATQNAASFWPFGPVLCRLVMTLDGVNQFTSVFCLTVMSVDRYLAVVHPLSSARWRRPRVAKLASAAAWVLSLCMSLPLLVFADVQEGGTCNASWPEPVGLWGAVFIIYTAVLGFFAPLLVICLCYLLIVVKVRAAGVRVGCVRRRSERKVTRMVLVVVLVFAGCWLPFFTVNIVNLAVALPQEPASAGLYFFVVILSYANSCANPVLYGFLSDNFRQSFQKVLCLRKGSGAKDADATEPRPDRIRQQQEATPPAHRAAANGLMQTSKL
row,Compound,SSTS inhibition at 10 micromolar
1,CSC1O[C@H](COCc2cccc(N)c2)[C@@H](O)[C@H](OCc2ccccc2)[C@H]1NC(=O)CCC1CNc2ccccc21 (some centres unmarked) [Compound 337],+ (Indicates inhibition greater than . . . 50%)

# Same assay, conditions: 10 micromolar compound; recombinant human receptor membranes (HEK 293)
row,Compound,SST5 inhibition at 10 micromolar
1,COC[C@H]1OC(OCc2ccc(-c3ccccc3)cc2)[C@H](NC(=O)CNC(=N)N)[C@@H](OCc2ccc(-c3ccccc3)cc2)[C@@H]1O (some centres unmarked) [Compound 1],+ (Indicates inhibition greater than . . . 50%)
2,COC[C@H]1OC(OCc2ccccc2)[C@H](NC(=O)CCNC(=N)N)[C@@H](OCc2ccc(-c3ccccc3)cc2)[C@@H]1O (some centres unmarked) [Compound 6],+ (Indicates inhibition greater than . . . 50%)
3,COC[C@H]1OC(OCc2ccc(Cl)cc2)[C@H](NC(=O)CCNC(=N)N)[C@@H](OCc2ccc(-c3ccccc3)cc2)[C@@H]1O (some centres unmarked) [Compound 13],+ (Indicates inhibition greater than . . . 50%)
4,COC[C@H]1OC(OCc2ccc(Cl)cc2)[C@H](NC(=O)CCNC(=N)N)[C@@H](OCc2ccc3ccccc3c2)[C@@H]1O (some centres unmarked) [Compound 14],+ (Indicates inhibition greater than . . . 50%)
5,CSC1OC(COCc2ccccc2)C(O)C(OCc2ccc(Cl)cc2)C1NC(=O)CCCN (centres unmarked) [Compound 147],+ (Indicates inhibition greater than . . . 50%)
6,CSC1OC(COCc2ccc(Cl)cc2)C(O)C(OCc2ccc(Cl)cc2)C1NC(=O)CN (centres unmarked) [Compound 149],+ (Indicates inhibition greater than . . . 50%)
7,CSC1OC(COCc2ccc(Cl)cc2)C(O)C(OCc2ccc(Cl)cc2)C1NC(=O)CCCN (centres unmarked) [Compound 153],+ (Indicates inhibition greater than . . . 50%)
8,CSC1OC(COCc2ccc(-c3ccccc3)cc2)C(O)C(OCc2ccc(-c3ccccc3)cc2)C1NC(=O)CCCNC(=N)N (centres unmarked) [Compound 184],+ (Indicates inhibition greater than . . . 50%)
9,CSC1OC(COCc2ccccc2)C(O)C(OCc2ccc3ccccc3c2)C1NC(=O)CCN (centres unmarked) [Compound 193],+ (Indicates inhibition greater than . . . 50%)
10,CSC1OC(COC(=O)Cc2c[nH]c3ccccc23)C(O)C(OCc2cccc(N)c2)C1NCc1ccccc1 (centres unmarked) [Compound 310],+ (Indicates inhibition greater than . . . 50%)
11,CSC1OC(COC(=O)c2ccccc2)C(O)C(OCc2cccc(N)c2)C1NCc1ccc(Cl)cc1 (centres unmarked) [Compound 312],+ (Indicates inhibition greater than . . . 50%)
12,CSC1OC(COC(=O)Cc2c[nH]c3ccccc23)C(O)C(OCc2cccc(N)c2)C1NCc1ccc(Cl)cc1 (centres unmarked) [Compound 315],+ (Indicates inhibition greater than . . . 50%)
13,CSC1O[C@H](COCc2ccccc2)[C@@H](O)[C@H](OCc2cccc(N)c2)[C@H]1NC(=O)c1ccccc1 (some centres unmarked) [Compound 316],+ (Indicates inhibition greater than . . . 50%)
14,CSC1O[C@H](COCc2ccccc2)[C@@H](O)[C@H](OCc2cccc(N)c2)[C@H]1NC(=O)Cc1c[nH]c2ccccc12 (some centres unmarked) [Compound 319],+ (Indicates inhibition greater than . . . 50%)
15,CSC1O[C@H](COCc2ccc(Cl)cc2)[C@@H](O)[C@H](OCc2cccc(N)c2)[C@H]1NC(=O)c1ccccc1 (some centres unmarked) [Compound 321],+ (Indicates inhibition greater than . . . 50%)
16,CSC1O[C@H](COCc2ccc(Cl)cc2)[C@@H](O)[C@H](OCc2cccc(N)c2)[C@H]1NC(=O)Cc1ccccc1 (some centres unmarked) [Compound 322],+ (Indicates inhibition greater than . . . 50%)
17,CSC1OC(COCc2cccc(N)c2)C(O)C(OCc2ccccc2)C1NC(=O)c1ccccc1 (centres unmarked) [Compound 326],+ (Indicates inhibition greater than . . . 50%)
18,CSC1OC(COCc2cccc(N)c2)C(O)C(OCc2ccccc2)C1NC(=O)Cc1c[nH]c2ccccc12 (centres unmarked) [Compound 329],+ (Indicates inhibition greater than . . . 50%)

# Same assay, conditions: 10 micromolar; Example Library 4
row,Compound,SSTS inhibition at 10 micromolar
1,COCC1OC(OCc2ccccc2)C(NC(=O)CN)C(OCc2ccccc2)C1O (centres unmarked) [Compound 213],+ (Indicates inhibition greater than . . . 50%)
2,COCC1OC(OCc2ccccc2)C(NC(=O)CCN)C(OCc2ccccc2)C1O (centres unmarked) [Compound 215],+ (Indicates inhibition greater than . . . 50%)
3,COCC1OC(OCc2ccccc2)C(NC(=O)CCCN)C(OCc2ccccc2)C1O (centres unmarked) [Compound 217],+ (Indicates inhibition greater than . . . 50%)
4,COCC1OC(OCc2ccccc2)C(NC(=O)CN)C(OCc2ccc3ccccc3c2)C1O (centres unmarked) [Compound 231],+ (Indicates inhibition greater than . . . 50%)
5,COCC1OC(OCc2ccc(Cl)cc2)C(NC(=O)CCN)C(OCc2ccccc2)C1O (centres unmarked) [Compound 238],+ (Indicates inhibition greater than . . . 50%)
6,COCC1OC(OCc2ccc(Cl)cc2)C(NC(=O)CCCN)C(OCc2ccccc2)C1O (centres unmarked) [Compound 240],+ (Indicates inhibition greater than . . . 50%)
7,COCC1OC(OCCc2ccccc2)C(NC(=O)CN)C(OCc2ccccc2)C1O (centres unmarked) [Compound 260],+ (Indicates inhibition greater than . . . 50%)
8,COCC1OC(OCCc2ccccc2)C(NC(=O)CCN)C(OCc2ccccc2)C1O (centres unmarked) [Compound 262],+ (Indicates inhibition greater than . . . 50%)
9,COCC1OC(OCCc2ccccc2)C(NC(=O)CCCN)C(OCc2ccccc2)C1O (centres unmarked) [Compound 264],+ (Indicates inhibition greater than . . . 50%)
10,COCC1OC(OCCc2ccccc2)C(NC(=O)CN)C(OCc2ccc(Cl)cc2)C1O (centres unmarked) [Compound 266],+ (Indicates inhibition greater than . . . 50%)
11,COCC1OC(OCc2ccc3ccccc3c2)C(NC(=O)CN)C(OCc2ccccc2)C1O (centres unmarked) [Compound 284],+ (Indicates inhibition greater than . . . 50%)
12,COCC1OC(OCc2ccc3ccccc3c2)C(NC(=O)CCCN)C(OCc2ccccc2)C1O (centres unmarked) [Compound 288],+ (Indicates inhibition greater than . . . 50%)
13,COCC1OC(OCc2ccc3ccccc3c2)C(NC(=O)CCCNC(=N)N)C(OCc2ccccc2)C1O (centres unmarked) [Compound 289],+ (Indicates inhibition greater than . . . 50%)
14,COCC1OC(OCc2ccc3ccccc3c2)C(NC(=O)CN)C(OCc2ccc(Cl)cc2)C1O (centres unmarked) [Compound 290],+ (Indicates inhibition greater than . . . 50%)
15,COCC1OC(OCc2ccc3ccccc3c2)C(NC(=O)CCN)C(OCc2ccc(Cl)cc2)C1O (centres unmarked) [Compound 292],+ (Indicates inhibition greater than . . . 50%)
16,COCC1OC(OCc2ccc3ccccc3c2)C(NC(=O)CN)C(OCc2ccc(-c3ccccc3)cc2)C1O (centres unmarked) [Compound 296],+ (Indicates inhibition greater than . . . 50%)
17,COCC1OC(OCc2ccc3ccccc3c2)C(NC(=O)CCN)C(OCc2ccc3ccccc3c2)C1O (centres unmarked) [Compound 304],+ (Indicates inhibition greater than . . . 50%)
18,COCC1OC(OCc2ccc3ccccc3c2)C(NC(=O)CCCN)C(OCc2ccc3ccccc3c2)C1O (centres unmarked) [Compound 306],+ (Indicates inhibition greater than . . . 50%)
